Source: patent US20220162192A1 (ESCAPE Bio, Inc., priority 2019, published 2022)
Where two headings read alike, the source gives them in different places.

Assays:
[1] = target: T1, Recombinant wild type LRRK2 protein (Homo sapiens, UniProt Q5S007); test: LanthaScreen Kinase Activity Assay (TR-FRET), wild type LRRK2; type: biochemical; settings: 25 μM ATP, 400 nM LRRKtide, 2.9 nM kinase, 60 min at room temperature, read-out: LRRK2 WT IC50
T1 construct: purchased Life Technologies PR8604B
Description: (§1) LRRK2 kinase activity was measured using a LanthaScreen™ Kinase Activity Assay from ThermoFisher Scientific. Recombinant wild type or G2019S-LRRK2 protein (Life Technologies, PR8604B or PV4881, respectively), was incubated with a fluorescein-labeled peptide substrate called LRRKtide that is based upon ezrin/radixin/moesin (ERM) (Life Technologies, PV4901) in the presence of ATP and serially diluted compound. After an incubation period of 1 hr, the phosphotransferase activity was stopped and a terbium-labelled anti-pERM antibody (Life Technologies, PV4899) was added to detect the phosphorylation of LRRKtide by measuring the time resolved-Forster resonant energy transfer (TR-FRET) signal from the terbium label on the antibody to the fluorescein tag on LRRKtide, expressed as the 520 nm/495 nm emission ratio. Compound-dependent inhibition of the TR-FRET signal was used to generate a concentration-response curve for IC50 determination.
(§2) The assay was carried out under the following protocol conditions: 1 mM compound in DMSO was serially diluted 1:3, 11 points in DMSO with a Biomek FX and 0.1 μL of the diluted compound was subsequently stamped into the assay plate (384-well format Lumitrac 200, Greiner, 781075) with an Echo Labcyte such that the final compound concentration in the assay was 10 μM to […]. Subsequently, 5 μL of 2× kinase solution (2.9 nM final concentration) was added to the assay plate in assay buffer composed of 50 mM Tris pH 8.5 (Sigma, T6791), 5 mM MgCl2 (Fluka, 63020), 1 mM EGTA (Sigma, E3889), 0.01% BRIJ-35 (Sigma, P1254) and 2 mM DTT. The reaction was started by addition of 2×ATP/LRRKtide solution in assay buffer such that the final concentration was 400 nM LRRKtide and 25 μM ATP. After 60 min incubation at room temperature, the reaction was stopped by addition of […] containing a final concentration of 2 nM anti-pERM antibody and 10 mM EDTA. After a 30 min incubation at RT, the TR-FRET signal was measured on a Wallac 2104 EnVision® multilabel reader at an excitation wavelength of 340 nm and reading emission at 520 nm and 495 nm. The ratio of the 520 nm and 495 nm emission was used to analyze the data.

[2] = target: T2, Recombinant G2019S-LRRK2 protein (Homo sapiens, UniProt Q5S007, G2019S); test: LanthaScreen Kinase Activity Assay (TR-FRET), G2019S-LRRK2; type: biochemical; settings: class symbols; 25 μM ATP, 400 nM LRRKtide, 2.9 nM kinase, 60 min at room temperature
T2 construct: purchased Life Technologies PV4881
Description: as §1, §2

[3] = numeric bound instead of class symbol

T1 sequence (Q5S007 whole entry): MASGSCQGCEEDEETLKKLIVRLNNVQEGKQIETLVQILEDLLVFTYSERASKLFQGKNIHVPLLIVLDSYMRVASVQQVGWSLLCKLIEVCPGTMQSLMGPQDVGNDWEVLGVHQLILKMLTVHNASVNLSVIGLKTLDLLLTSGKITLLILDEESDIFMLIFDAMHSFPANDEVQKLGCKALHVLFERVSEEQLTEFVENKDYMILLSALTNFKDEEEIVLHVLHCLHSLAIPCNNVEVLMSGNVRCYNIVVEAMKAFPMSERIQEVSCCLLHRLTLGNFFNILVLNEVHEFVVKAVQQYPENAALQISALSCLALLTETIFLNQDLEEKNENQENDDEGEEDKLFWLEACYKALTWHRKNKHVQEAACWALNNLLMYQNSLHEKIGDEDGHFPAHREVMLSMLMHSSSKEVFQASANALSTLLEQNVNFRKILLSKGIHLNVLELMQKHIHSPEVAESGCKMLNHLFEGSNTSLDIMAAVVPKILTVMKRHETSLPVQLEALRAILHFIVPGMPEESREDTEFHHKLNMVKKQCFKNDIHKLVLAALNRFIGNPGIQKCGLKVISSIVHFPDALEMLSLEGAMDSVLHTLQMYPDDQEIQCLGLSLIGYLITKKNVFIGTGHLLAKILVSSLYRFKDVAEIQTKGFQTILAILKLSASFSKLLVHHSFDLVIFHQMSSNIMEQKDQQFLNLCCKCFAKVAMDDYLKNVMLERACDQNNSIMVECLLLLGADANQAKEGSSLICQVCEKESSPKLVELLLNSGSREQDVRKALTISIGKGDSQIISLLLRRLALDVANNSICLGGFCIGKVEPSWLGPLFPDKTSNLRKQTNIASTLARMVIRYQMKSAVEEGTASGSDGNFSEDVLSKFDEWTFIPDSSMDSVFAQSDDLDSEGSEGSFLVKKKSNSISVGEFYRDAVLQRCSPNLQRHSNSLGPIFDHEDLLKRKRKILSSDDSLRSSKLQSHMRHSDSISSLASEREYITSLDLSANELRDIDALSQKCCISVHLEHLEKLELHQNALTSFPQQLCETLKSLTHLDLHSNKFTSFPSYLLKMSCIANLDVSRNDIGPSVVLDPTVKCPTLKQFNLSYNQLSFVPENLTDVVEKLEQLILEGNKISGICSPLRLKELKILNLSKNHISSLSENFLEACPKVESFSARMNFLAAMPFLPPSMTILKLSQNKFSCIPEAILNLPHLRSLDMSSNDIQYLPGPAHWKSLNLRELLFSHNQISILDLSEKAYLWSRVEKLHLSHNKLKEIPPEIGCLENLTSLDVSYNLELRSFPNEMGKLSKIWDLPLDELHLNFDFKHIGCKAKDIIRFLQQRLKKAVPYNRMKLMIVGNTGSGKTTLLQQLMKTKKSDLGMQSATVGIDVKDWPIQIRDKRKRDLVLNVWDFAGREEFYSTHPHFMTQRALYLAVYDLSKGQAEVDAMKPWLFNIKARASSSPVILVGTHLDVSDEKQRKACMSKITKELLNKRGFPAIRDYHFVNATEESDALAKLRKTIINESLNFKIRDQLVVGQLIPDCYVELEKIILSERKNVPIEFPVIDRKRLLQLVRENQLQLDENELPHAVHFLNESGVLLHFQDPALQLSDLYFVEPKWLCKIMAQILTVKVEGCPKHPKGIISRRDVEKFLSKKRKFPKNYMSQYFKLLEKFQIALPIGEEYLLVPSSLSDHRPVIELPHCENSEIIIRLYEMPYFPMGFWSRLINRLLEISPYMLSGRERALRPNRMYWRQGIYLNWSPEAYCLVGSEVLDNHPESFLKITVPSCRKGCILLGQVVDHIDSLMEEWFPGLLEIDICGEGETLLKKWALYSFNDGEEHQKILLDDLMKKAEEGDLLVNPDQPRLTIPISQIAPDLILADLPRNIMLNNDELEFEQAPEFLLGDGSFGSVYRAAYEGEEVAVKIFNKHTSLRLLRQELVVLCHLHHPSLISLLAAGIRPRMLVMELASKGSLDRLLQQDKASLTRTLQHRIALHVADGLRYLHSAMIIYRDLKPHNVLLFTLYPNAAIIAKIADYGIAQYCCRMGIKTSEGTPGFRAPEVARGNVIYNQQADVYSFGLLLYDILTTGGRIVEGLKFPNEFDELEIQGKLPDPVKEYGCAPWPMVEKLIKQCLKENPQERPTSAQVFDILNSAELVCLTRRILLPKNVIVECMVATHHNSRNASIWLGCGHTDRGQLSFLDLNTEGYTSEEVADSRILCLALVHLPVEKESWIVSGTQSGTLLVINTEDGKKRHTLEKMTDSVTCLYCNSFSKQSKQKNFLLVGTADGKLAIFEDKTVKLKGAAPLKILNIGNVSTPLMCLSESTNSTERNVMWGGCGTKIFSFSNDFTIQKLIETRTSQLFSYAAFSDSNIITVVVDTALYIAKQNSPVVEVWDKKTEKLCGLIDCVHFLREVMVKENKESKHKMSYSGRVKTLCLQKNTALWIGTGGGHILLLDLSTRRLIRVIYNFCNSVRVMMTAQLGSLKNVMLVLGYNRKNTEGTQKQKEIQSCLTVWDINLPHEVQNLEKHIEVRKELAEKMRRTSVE
T2 sequence (Q5S007 whole entry G2019S): as the sequence (Q5S007 whole entry) above, with G2019S counted along it

Row | Structure (SMILES) | IC50 ([1]; class symbols) | IC50 [2] | IC50 [1, 3]
1 | O=C(Nc1ccc2[nH]nc(-c3ccoc3)c2c1)C1CCc2cncn2C1 (single isomer, unassigned) [Example 173b] | 1000 to 10000 nM | 1000 to 10000 nM | 
2 | O=C(Nc1ccc2[nH]nc(-c3ccoc3)c2c1)C1CCc2nncn2C1 (single isomer, unassigned) [Example 162a] | ≤ 100 nM | ≤ 100 nM | 
3 | Cc1c(C(=O)Nc2ccc3[nH]nc(-c4ccccc4)c3c2)ccn2nncc12 [Example 149, 4-Methyl-N-(3-phenyl-1H-indazol-5-yl)-[1,2,3]triazolo[1,5-a]pyridine-5-carboxamide] | ≤ 100 nM | ≤ 100 nM | 
4 | Cc1cc2nn[nH]c2cc1C(=O)Nc1ccc2[nH]nc(Br)c2c1 [Example 15, N-(3-Bromo-1H-indazol-5-yl)-5-methyl-1H-benzo[d][1,2,3]triazole-6-carboxamide] | 1000 to 10000 nM | ≤ 100 nM | 
5 | Cn1ncc2c(F)c(C(=O)Nc3cc4c(-c5ccccc5)n[nH]c4cc3F)c(F)cc21 [Example 143, 4,6-Difluoro-N-(6-fluoro-3-phenyl-1H-indazol-5-yl)-1-methyl-1H-indazole-5-carboxamide] | 100 to 1000 nM | ≤ 100 nM | 
6 | Cn1ncc2c(F)c(C(=O)Nc3ccc4[nH]nc(-c5ccccc5C#N)c4c3)c(F)cc21 [Example 74, N-(3-(2-Cyanophenyl)-1H-indazol-5-yl)-4,6-difluoro-1-methyl-1H-indazole-5-carboxamide] |  | 100 to 1000 nM | > 10000 nM
7 | O=C(Nc1ccc2[nH]nc(-c3ccoc3)c2c1)c1ccn2nccc2c1 [Example 117, N-(3-(Furan-3-yl)-1H-indazol-5-yl)pyrazolo[1,5-a]pyridine-5-carboxamide] | 100 to 1000 nM | ≤ 100 nM | 
8 | Cn1cnc2ccc(C(=O)Nc3ccc4[nH]nc(-c5ccoc5)c4c3)cc21 [Example 131, N-(3-(Furan-3-yl)-1H-indazol-5-yl)-1-methyl-1H-benzo[d]imidazole-6-carboxamide] | ≤ 100 nM | ≤ 100 nM | 
9 | Cc1cc2cnnn2cc1C(=O)Nc1ccc2[nH]nc(-c3ccccc3)c2c1 [Example 43, 5-Methyl-N-(3-phenyl-1H-indazol-5-yl)-[1,2,3]triazolo[1,5-a]pyridine-6-carboxamide] | ≤ 100 nM | ≤ 100 nM | 
10 | Cc1n[nH]c2ccc(NC(=O)c3ccc4[nH]nnc4c3C#N)cc12 [Example 14, 4-Cyano-N-(3-methyl-1H-indazol-5-yl)-1H-benzo[d][1,2,3]triazole-5-carboxamide] |  | 1000 to 10000 nM | > 10000 nM
11 | Cc1cc(C(=O)Nc2ccc3[nH]nc(-c4ccncc4)c3c2)cc2nn[nH]c12 [Example 13, 7-Methyl-N-(3-(pyridin-4-yl)-1H-indazol-5-yl)-1H-benzo[d][1,2,3]triazole-5-carboxamide] | 100 to 1000 nM | 100 to 1000 nM | 
12 | Cn1cc2c(n1)CCC(C(=O)Nc1ccc3[nH]nc(-c4ccoc4)c3c1)C2 (single isomer, unassigned) [Example 161d] | 100 to 1000 nM | ≤ 100 nM | 
13 | Cc1c(C(=O)Nc2ccc3[nH]nc(-c4ccoc4)c3c2)cnc2cncn12 [Example 113, N-(3-(Furan-3-yl)-1H-indazol-5-yl)-4-methylimidazo[1,5-a]pyrimidine-3-carboxamide] | ≤ 100 nM | ≤ 100 nM | 
14 | COc1cccc(-c2n[nH]c3ccc(NC(=O)c4c(F)cc5c(cnn5C)c4F)cc23)c1 [Example 84, 4,6-Difluoro-N-(3-(3-methoxyphenyl)-1H-indazol-5-yl)-1-methyl-1H-indazole-5-carboxamide] | ≤ 100 nM | ≤ 100 nM | 
15 | Cc1cc2c(cnn2C)cc1C(=O)Nc1ccc2[nH]nc(-c3ccoc3)c2c1 [Example 158, N-(3-(Furan-3-yl)-1H-indazol-5-yl)-1,6-dimethyl-1H-indazole-5-carboxamide] | ≤ 100 nM | ≤ 100 nM | 
16 | Cc1cc2c(C)ncn2c(C)c1C(=O)Nc1ccc2[nH]nc(C)c2c1 [Example 148, 1,5,7-Trimethyl-N-(3-methyl-1H-indazol-5-yl)imidazo[1,5-a]pyridine-6-carboxamide] | 100 to 1000 nM | ≤ 100 nM | 
17 | O=C(Nc1ccc2[nH]nc(-c3ccoc3)c2c1)c1ccc2ncoc2c1 [Example 116, N-(3-(furan-3-yl)-1H-indazol-5-yl)benzo[d]oxazole-6-carboxamide] | 100 to 1000 nM | ≤ 100 nM | 

Further lines, results first:

Row | IC50 ([1]; class symbols) | IC50 [2] | IC50 [1, 3] | Structure (SMILES)
18 | 100 to 1000 nM | ≤ 100 nM |  | Cn1ncc2c(F)c(C(=O)Nc3ccc4[nH]nc(C#N)c4c3)c(F)cc21 [Example 105, N-(3-Cyano-1H-indazol-5-yl)-4,6-difluoro-1-methyl-1H-indazole-5-carboxamide]
19 | 1000 to 10000 nM | 1000 to 10000 nM |  | Cc1ccccc1-c1n[nH]c2ccc(NC(=O)c3c(F)cc4c(cnn4C)c3F)cc12 [Example 77, 4,6-Difluoro-1-methyl-N-(3-(o-tolyl)-1H-indazol-5-yl)-1H-indazole-5-carboxamide]
20 | 100 to 1000 nM | ≤ 100 nM |  | Cn1ncc2c(F)c(C(=O)Nc3ccc4[nH]nc(-n5ccnc5)c4c3)c(F)cc21 [Example 141, N-(3-(1H-Imidazol-1-yl)-1H-indazol-5-yl)-4,6-difluoro-1-methyl-1H-indazole-5-carboxamide]
21 |  | 1000 to 10000 nM | > 10000 nM | Cn1ncc2c(F)c(C(=O)Nc3ccc4[nH]nc(N5CC(C(=O)O)C5)c4c3)c(F)cc21 [Example 142, 1-(5-(4,6-difluoro-1-methyl-1H-indazole-5-carboxamido)-1H-indazol-3-yl)azetidine-3-carboxylic acid]
22 | 100 to 1000 nM | ≤ 100 nM |  | Cn1ncc2c(F)c(C(=O)Nc3ccc4[nH]nc(C(F)(F)F)c4c3)c(F)cc21 [Example 115, 4,6-Difluoro-1-methyl-N-(3-(trifluoromethyl)-1H-indazol-5-yl)-1H-indazole-5-carboxamide]
23 | 100 to 1000 nM | ≤ 100 nM |  | COc1ccncc1-c1n[nH]c2ccc(NC(=O)c3c(F)cc4c(cnn4C)c3F)cc12 [Example 102, 4,6-Difluoro-N-(3-(4-methoxypyridin-3-yl)-1H-indazol-5-yl)-1-methyl-1H-indazole-5-carboxamide]
24 | 1000 to 10000 nM | ≤ 100 nM |  | COc1n[nH]c2ccc(NC(=O)c3c(F)cc4c(cnn4C)c3F)cc12 [Example 106, 4,6-Difluoro-N-(3-methoxy-1H-indazol-5-yl)-1-methyl-1H-indazole-5-carboxamide]
25 | 1000 to 10000 nM | 100 to 1000 nM |  | Cn1ncc2c(F)c(C(=O)Nc3ccc4[nH]nc(N5CCC5)c4c3)c(F)cc21 [Example 139, N-(3-(Azetidin-1-yl)-1H-indazol-5-yl)-4,6-difluoro-1-methyl-1H-indazole-5-carboxamide]
26 | 1000 to 10000 nM | 100 to 1000 nM |  | Cn1ncc2c(F)c(C(=O)Nc3ccc4[nH]nc(Cc5ccccc5)c4c3)c(F)cc21 [Example 140, N-(3-Benzyl-1H-indazol-5-yl)-4,6-difluoro-1-methyl-1H-indazole-5-carboxamide]
27 | 1000 to 10000 nM | 100 to 1000 nM |  | Cn1ncc2c(F)c(C(=O)Nc3ccc4[nH]nc(N5CCCC5)c4c3)c(F)cc21 [Example 108, 4,6-Difluoro-1-methyl-N-(3-(pyrrolidin-1-yl)-1H-indazol-5-yl)-1H-indazole-5-carboxamide]
28 | 100 to 1000 nM | ≤ 100 nM |  | Cc1cc(-c2n[nH]c3ccc(NC(=O)c4c(F)cc5c(cnn5C)c4F)cc23)c(C)o1 [Example 101, N-(3-(2,5-Dimethylfuran-3-yl)-1H-indazol-5-yl)-4,6-difluoro-1-methyl-1H-indazole-5-carboxamide]
